IC50 data for 23 compounds are collected here from US9556179B2 (BRISTOL-MYERS SQUIBB COMPANY, priority 2012, dated 2017).

pIC50: −log10 of the molar value.

Test [1] has as its target CK1ε (Homo sapiens (Human), UniProt P49674). In words: CK1ε kinase assay (Caliper LABCHIP electrophoretic separation of fluoresceinated peptide substrate and product). Type of test: biochemical. The conditions noted are these: 200 pM enzyme, 50 μM ATP, 22 hours at room temperature. A digest of the protocol: (§1)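 Incubated for twenty-two hours at ambient temperature, then quenched with EDTA and analyzed by electrophoretic separation of unphosphorylated and phosphorylated peptide.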

Test [2] addresses CK1δ (Homo sapiens (Human), UniProt P48730). In words: CK1δ kinase assay (Caliper LABCHIP electrophoretic separation of fluoresceinated peptide substrate and product). Type of test: biochemical. The conditions noted are these: 200 pM enzyme, 50 μM ATP, 22 hours at room temperature. A digest of the protocol: as §1

The term pIC50 denotes the IC50 on a negative log10 scale, so that one unit is a factor of ten. Lower therefore signals a high IC50.

Chain of CK1ε (P49674 whole entry): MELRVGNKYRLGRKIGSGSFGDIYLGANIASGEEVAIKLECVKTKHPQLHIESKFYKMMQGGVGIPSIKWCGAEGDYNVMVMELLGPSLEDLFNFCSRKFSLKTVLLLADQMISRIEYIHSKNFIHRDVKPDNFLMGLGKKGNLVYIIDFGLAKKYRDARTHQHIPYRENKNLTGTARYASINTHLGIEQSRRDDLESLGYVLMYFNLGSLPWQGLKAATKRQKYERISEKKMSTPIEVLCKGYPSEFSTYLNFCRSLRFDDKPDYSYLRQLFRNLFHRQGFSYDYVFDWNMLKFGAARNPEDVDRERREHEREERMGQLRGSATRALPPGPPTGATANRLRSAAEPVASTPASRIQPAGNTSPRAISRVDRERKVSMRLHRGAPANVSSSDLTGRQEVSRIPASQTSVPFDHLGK
Chain of CK1δ (P48730 whole entry): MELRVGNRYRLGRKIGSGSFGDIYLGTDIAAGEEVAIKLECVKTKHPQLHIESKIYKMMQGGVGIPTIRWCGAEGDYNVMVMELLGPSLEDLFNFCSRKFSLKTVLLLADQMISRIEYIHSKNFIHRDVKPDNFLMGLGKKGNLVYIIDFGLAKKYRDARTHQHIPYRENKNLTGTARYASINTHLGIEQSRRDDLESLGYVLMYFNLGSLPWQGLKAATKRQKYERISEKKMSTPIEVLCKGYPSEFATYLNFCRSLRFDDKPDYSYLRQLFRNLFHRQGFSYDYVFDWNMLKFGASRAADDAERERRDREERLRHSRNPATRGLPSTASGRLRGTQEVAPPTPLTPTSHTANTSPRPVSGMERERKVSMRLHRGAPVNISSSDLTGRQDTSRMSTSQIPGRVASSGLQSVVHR

`COC(=O)N1CCC(n2cnc(-c3ccc(F)cc3)c2-c2ccc3nc(NC(=O)c4ccnc(F)c4)cn3n2)CC1` [Compound 84, methyl 4-(5-(2-(2-fluoroisonicotinamido)imidazo[1,2-b]pyridazin-6-yl)-4-(4-fluorophenyl)-1H-imidazol-1-yl)piperidine-1-carboxylate]: the figures for the negative logarithm of the IC50 (pIC50) in test [1] and in test [2] were 9.01 and 9.75, respectively.

On to `O=C(Nc1cn2nc(-c3c(-c4ccc(F)cc4)ncn3C3CCN(C(=O)OCC(F)(F)F)CC3)ccc2n1)c1ccnc(F)c1` [Compound 85, 2,2,2-trifluoroethyl 4-(5-(2-(2-fluoroisonicotinamido)imidazo[1,2-b]pyridazin-6-yl)-4-(4-fluorophenyl)-1H-imidazol-1-yl)piperidine-1-carboxylate], for which the results for the negative-log IC50 (pIC50) in test [1] and in test [2] were 8.63 and 9.51, respectively.

For `O=C(Nc1cn2nc(-c3c(-c4ccc(F)cc4)ncn3C3CCN(C(=O)OCc4ccon4)CC3)ccc2n1)c1ccnc(F)c1` [Compound 86, isoxazol-3-ylmethyl 4-(5-(2-(2-fluoroisonicotinamido)imidazo[1,2-b]pyridazin-6-yl)-4-(4-fluorophenyl)-1H-imidazol-1-yl)piperidine-1-carboxylate], the negative-log IC50 (pIC50) in test [1] was 9.07; in test [2] it was 9.54.

Turning to `O=C(Nc1cn2nc(-c3c(-c4ccc(F)cc4)ncn3C3CCNCC3)ccc2n1)c1cc(F)nc(F)c1` [Compound 87, 2,6-difluoro-N-(6-(4-(4-fluorophenyl)-1-(piperidin-4-yl)-1H-imidazol-5-yl)imidazo[1,2-b]pyridazin-2-yl)isonicotinamide], the pIC50 is 8.98 in test [1] and 9.40 in test [2].

On to `O=C(Nc1cn2nc(-c3c(-c4ccc(F)cc4)ncn3C3CCN(CCCF)CC3)ccc2n1)c1cc(F)nc(F)c1` [Compound 88, 2,6-difluoro-N-(6-(4-(4-fluorophenyl)-1-(1-(3-fluoropropyl)piperidin-4-yl)-1H-imidazol-5-yl)imidazo[1,2-b]pyridazin-2-yl)isonicotinamide], for which the pIC50 in test [1] is 8.59; in test [2], 9.42.

For `NC(=O)CN1CCC(n2cnc(-c3ccc(F)cc3)c2-c2ccc3nc(NC(=O)c4cc(F)nc(F)c4)cn3n2)CC1` [Compound 89, N-(6-(1-(1-(2-amino-2-oxoethyl)piperidin-4-yl)-4-(4-fluorophenyl)-1H-imidazol-5-yl)imidazo[1,2-b]pyridazin-2-yl)-2,6-difluoroisonicotinamide], the pIC50 is 8.96 in test [1] and 9.84 in test [2].

Consider `O=C(Nc1cn2nc(-c3c(-c4ccc(F)cc4)ncn3C3CCN(C[C@@H](O)C(F)(F)F)CC3)ccc2n1)c1cc(F)nc(F)c1` [Compound 90, (R)-2,6-difluoro-N-(6-(4-(4-fluorophenyl)-1-(1-(3,3,3-trifluoro-2-hydroxypropyl)piperidin-4-yl)-1H-imidazol-5-yl)imidazo[1,2-b]pyridazin-2-yl)isonicotinamide], for which the pIC50 in test [1] is 8.25; in test [2], 9.19.

Regarding `O=C(Nc1cn2nc(-c3c(-c4ccc(F)cc4)ncn3C3CCN(C[C@H](O)C(F)(F)F)CC3)ccc2n1)c1cc(F)nc(F)c1` [Compound 91, (S)-2,6-difluoro-N-(6-(4-(4-fluorophenyl)-1-(1-(3,3,3-trifluoro-2-hydroxypropyl)piperidin-4-yl)-1H-imidazol-5-yl)imidazo[1,2-b]pyridazin-2-yl)isonicotinamide], the negative logarithm of the IC50 (pIC50) in test [1] was 9.10; in test [2] it was 9.53.

In the case of `O=C(Nc1cn2nc(-c3c(-c4ccc(F)cc4)ncn3C3CCN(CCC(F)(F)F)CC3)ccc2n1)c1cc(F)nc(F)c1` [Compound 92, 2,6-difluoro-N-(6-(4-(4-fluorophenyl)-1-(1-(3,3,3-trifluoropropyl)piperidin-4-yl)-1H-imidazol-5-yl)imidazo[1,2-b]pyridazin-2-yl)isonicotinamide], the pIC50 in test [1] was 8.10; in test [2], 8.84.

As to `O=C(Nc1cn2nc(-c3c(-c4ccc(F)cc4)ncn3C3CCN(C(=O)c4ccon4)CC3)ccc2n1)c1cc(F)nc(F)c1` [Compound 93, 2,6-difluoro-N-(6-(4-(4-fluorophenyl)-1-(1-(isoxazole-3-carbonyl)piperidin-4-yl)-1H-imidazol-5-yl)imidazo[1,2-b]pyridazin-2-yl)isonicotinamide], the pIC50 in test [1] was 8.61; in test [2], 9.41.

Take `Cc1nc(-c2cccnc2)sc1C(=O)Nc1cn2nc(-c3c(-c4ccc(F)cc4)ncn3C3CCN(CCO)CC3)ccc2n1` [Compound 97, N-(6-(4-(4-fluorophenyl)-1-(1-(2-hydroxyethyl)piperidin-4-yl)-1H-imidazol-5-yl)imidazo [1,2-b]pyridazin-2-yl)-4-methyl-2-(pyridin-3-yl) thiazole-5-carboxamide]: the pIC50 in test [1] was 10.02; in test [2] it was 10.47.

Regarding `Cc1nc(-c2cccnc2)sc1C(=O)Nc1cn2nc(-c3c(-c4ccc(F)cc4)ncn3C3CCN(CCC(F)(F)F)CC3)ccc2n1` [Compound 98, N-(6-(4-(4-fluorophenyl)-1-(1-(3,3,3-trifluoropropyl)piperidin-4-yl)-1H-imidazol-5-yl)imidazo [1,2-b]pyridazin-2-yl)-4-methyl-2-(pyridin-3-yl)thiazole-5-carboxamide], the negative-log IC50 (pIC50) was 8.41 in test [1] and 9.57 in test [2].

As for `Cc1nc(-c2cccnc2)sc1C(=O)Nc1cn2nc(-c3c(-c4ccc(F)cc4)ncn3C3CCN(C[C@H](O)C(F)(F)F)CC3)ccc2n1` [Compound 99, (S)—N-(6-(4-(4-fluorophenyl)-1-(1-(3,3,3-trifluoro-2-hydroxypropyl)piperidin-4-yl)-1H-imidazol-5-yl)imidazo[1,2-b]pyridazin-2-yl)-4-methyl-2-(pyridin-3-yl)thiazole-5-carboxamide], the pIC50 in test [1] is 8.90; in test [2], 9.48.

On to `Cc1nc(-c2cccnc2)sc1C(=O)Nc1cn2nc(-c3c(-c4ccc(F)cc4)ncn3C3CCN(CC(N)=O)CC3)ccc2n1` [Compound 100, N-(6-(1-(1-(2-amino-2-oxoethyl)piperidin-4-yl)-4-(4-fluorophenyl)-1H-imidazol-5-yl)imidazo[1,2-b]pyridazin-2-yl)-4-methyl-2-(pyridin-3-yl) thiazole-5-carboxamide], for which the negative logarithm of the IC50 (pIC50) in test [1] was 9.89; in test [2], 10.04.

In the case of `Cc1nc(-c2cccnc2)sc1C(=O)Nc1cn2nc(-c3c(-c4ccc(F)cc4)ncn3C3CCN(C(=O)c4ccon4)CC3)ccc2n1` [Compound 101, N-(6-(4-(4-fluorophenyl)-1-(1-(isoxazole-3-carbonyl)piperidin-4-yl)-1H-imidazol-5-yl)imidazo[1,2-b]pyridazin-2-yl)-4-methyl-2-(pyridin-3-yl)thiazole-5-carboxamide], the negative-log IC50 (pIC50) in test [1] was 8.91; in test [2], 9.48.

Consider `Cc1nc(-c2cccnc2)sc1C(=O)Nc1cn2nc(-c3c(-c4ccc(F)cc4)ncn3C3CCN(C(=O)CC(F)(F)F)CC3)ccc2n1` [Compound 102, N-(6-(4-(4-fluorophenyl)-1-(1-(3,3,3-trifluoropropanoyl)piperidin-4-yl)-1H-imidazol-5-yl)imidazo [1,2-b]pyridazin-2-yl)-4-methyl-2-(pyridin-3-yl)thiazole-5-carboxamide], for which the values for the negative logarithm of the IC50 (pIC50) in test [1] and in test [2] were 9.32 and 9.61, respectively.

On to `O=C(Nc1cn2nc(-c3c(-c4ccc(F)cc4)ncn3C3CCNCC3)ccc2n1)c1ccnc(N2CCOCC2)c1` [Compound 106, N-(6-(4-(4-fluorophenyl)-1-(piperidin-4-yl)-1H-imidazol-5-yl)imidazo[1,2-b]pyridazin-2-yl)-2-morpholinoisonicotinamide], for which the figures for the pIC50 in test [1] and in test [2] were 8.51 and 9.14, respectively.

Regarding `O=C(Nc1cn2nc(-c3c(-c4ccc(F)cc4)ncn3C3CCN(CCC(F)(F)F)CC3)ccc2n1)c1ccnc(N2CCOCC2)c1` [Compound 107, N-(6-(4-(4-fluorophenyl)-1-(1-(3,3,3-trifluoropropyl)piperidin-4-yl)-1H-imidazol-5-yl)imidazo[1,2-b]pyridazin-2-yl)-2-morpholinoisonicotinamide], the pIC50 is 8.72 in test [1] and 9.33 in test [2].

`O=C(Nc1cn2nc(-c3c(-c4ccc(F)cc4)ncn3C3CCN(C(=O)CC(F)(F)F)CC3)ccc2n1)c1ccnc(N2CCOCC2)c1` [Compound 108, N-(6-(4-(4-fluorophenyl)-1-(1-(3,3,3-trifluoropropanoyl)piperidin-4-yl)-1H-imidazol-5-yl)imidazo[1,2-b]pyridazin-2-yl)-2-morpholinoisonicotinamide]: the pIC50 in test [1] is 8.48; in test [2], 9.51.

In the case of `CN1CCC(n2cnc(-c3ccc(F)cc3)c2-c2ccc3nc(NC(=O)c4ccnc5ccccc45)cn3n2)CC1` [Compound 110, N-(6-(4-(4-fluorophenyl)-1-(1-methylpiperidin-4-yl)-1H-imidazol-5-yl)imidazo[1,2-b]pyridazin-2-yl)quinoline-4-carboxamide], the pIC50 in test [1] is 8.49; in test [2], 9.19.

In the case of `NC(=O)CN1CCC(n2cnc(-c3ccc(F)cc3)c2-c2ccc3nc(NC(=O)c4ccnc5ccccc45)cn3n2)CC1` [Compound 112, N-(6-(1-(1-(2-amino-2-oxoethyl)piperidin-4-yl)-4-(4-fluorophenyl)-1H-imidazol-5-yl)imidazo[1,2-b]pyridazin-2-yl)quinoline-4-carboxamide], the negative-log IC50 (pIC50) in test [1] was 9.05; in test [2], 9.31.

Turning to `N#CCCN1CCC(n2cnc(-c3ccc(F)cc3)c2-c2ccc3nc(NC(=O)c4ccnc5ccccc45)cn3n2)CC1` [Compound 113, N-(6-(1-(1-(2-cyanoethyl)piperidin-4-yl)-4-(4-fluorophenyl)-1H-imidazol-5-yl)imidazo[1,2-b]pyridazin-2-yl)quinoline-4-carboxamide], the pIC50 in test [1] was 8.82; in test [2], 9.36.

Consider `O=C(Nc1cn2nc(-c3c(-c4ccc(F)cc4)ncn3C3CCN(CCC(F)(F)F)CC3)ccc2n1)c1cncs1` [Compound 115, N-(6-(4-(4-fluorophenyl)-1-(1-(3,3,3-trifluoropropyl)piperidin-4-yl)-1H-imidazol-5-yl)imidazo[1,2-b]pyridazin-2-yl)thiazole-5-carboxamide], for which the pIC50 is 8.41 in test [1] and 9.80 in test [2].
